These results are taken from PMC5068967, “Nucleophile sensitivity of Drosophila TRPA1 underlies light-induced feeding deterrence” (eLife, 2016).

One test concerns TRPA1(A)C105A. As to the kind of experiment: Two-electrode voltage clamp of Xenopus oocytes expressing TRPA1(A)C105A. The class given is cell-based, Drosophila melanogaster. Here is the method:
(§1) TRPA1-dependent currents in Xenopus laevis oocytes induced by application of chemicals and light illumination were recorded by the two-electrode voltage clamping technique (TEVC), as described previously ([Kang et al., 2010]; [Kang et al., 2012]). Briefly, ovaries were surgically prepared and subjected to digestion with 1.5 mg/ml collagenase for 1.5 hr. Subsequently, the follicular layer of the oocytes was manually removed. One day after microinjection of 50 nl of TrpA1 cRNA, oocytes were electrophysiologically examined while perfused with the recording solution (96 mM NaCl, 1 mM KCl, 1 mM MgCl2, 5 mM HEPES, pH 7.6). For UV illumination, the optical fiber terminal was mounted above the cell at a minimal distance to achieve the highest possible intensity (Figure 1—figure supplement 1c). […] For UV experiments, the initial voltage was −60 mV, and it was then changed in periods of 300 ms from −60 to +60 mV per second. […] The current was amplified with a GeneClamp 500B amplifier (Molecular Devices, CA, USA) and registered by a digitizer (Digidata 1440 A, Molecular Devices, CA, USA). Data from dose-dependence experiments were normalized with respect to 0.1 mM NMM currents recorded from the same cells, and fitted to the Hill equation using Sigmaplot12.

Another test concerns TRPA1(A)R113A/R116A. As to the kind of experiment: Two-electrode voltage clamp of Xenopus oocytes expressing TRPA1(A)R113A/R116A. It is filed as cell-based, Drosophila melanogaster. As for the experimental part:
as §1

The next test has as its target T1, human TRPA1 (humTRPA1) (Homo sapiens, UniProt O75762).
T1 construct: expressed in transfected cells; host or cells: Xenopus laevis oocytes injected with TrpA1 cRNA
As to the kind of experiment: Two-electrode voltage clamp of Xenopus oocytes expressing human TRPA1. The class given is cell-based. Here is the method:
as §1

Test [1] concerns bitter-sensing neurons in i-bristles. The experiment in a line: Extracellular single sensillum recording from labellum i-bristles. The class given is in vivo, Drosophila melanogaster. To be noted: for effect of pre-application on UV-evoked action potentials: i-a bristles, applied via the recording electrode, concentrations below those eliciting fast activation. Here is the method: In vivo taste cell recordings were performed as detailed previously ([Kang et al., 2012]). Briefly, bristles were identified based on the previously described sensillum map of the labellum ([Weiss et al., 2011]; [Tanimura et al., 2009]). […] Tricholine citrate (TCC) at 30 mM was used as an electrolyte in the glass recording electrodes. Chemicals were solubilized in the electrolyte solution, and then applied to taste neurons. Spiking frequencies to chemicals were calculated for entire recordings except for H2O2 recording in L bristles, for which spiking frequencies were calcuclated from the first 10 s. […] For the first 20 s of UV response recordings, the basal activity of neurons in the bristle was monitored, after which time UV illumination was administered to the sensilla for 20 s using optical fiber-coupled UV LEDs (FCS-0295–000, Mightex, CA, and UVTOP295, Qphotonics, MI, USA for UVB at 295 nm and M365FP1, Thorlabs, USA for UVA at 365 nm) controlled by an SLA-series two-channel LED driver (SLA-0100–2, Mightex) and a T-Cube LED driver (LEDD1B, Thorlab, USA), respectively. The maximal optical fiber output of 295 nm UV was 0.063 mWusing a ball-lens type LED and that of 365 nm UV was 0.3 mW. These net power outputs at the tip of the optical fiber were measured with a photodiode sensor (S120VC, Thorlabs, NJ, USA) connected to a digital console (PM100D, Thorlabs, NJ, USA). Illumination intensity was calculated by considering the size of illuminated area derived from the numerical aperture (NA) values of the optical fibers and the distance to the samples. Due to the complex shape of fly taste bristles on the labellum and various illumination angles between the light beam and tissue, we simplified the calculation by postulating a 45° angle and oval illumination area at a distance (Figure 1—figure supplement 1d). For oocytes, circular areas were calculated (Figure 1—figure supplement 1e). Blue and green light illumination was accomplished using a GFP or RFP excitation filter (470 or 540 nm with a bandpath of 50, respectively) equipped with a typical fluorescence microscope. The UV filter for experiments with white light consisted of glass deposited with nanolayers of titanium dioxide (custom-made, Seoul Precision Optics, Seoul, Korea). Flies prepared for sensillum recording in response to light were used once to record from a single bristle, in order to test only naïve cells. The reference electrode containing hemolymph-like solution 3.1 (HL3.1) ([Feng et al., 2009]) was inserted close to the labella taste neuron cell bodies from the back of the fly thorax, which held the proboscis in an extended configuration in order to minimize electrical noise stemming from movement of the live animal. Tasteprobe (Syntech, Netherlands) was used as a preamplifier to register the action potentials from the neurons, which were digitized with Powerlab (ADI instruments, Australia). The obtained spiking frequencies were analyzed by Labchart (ADI instruments, Australia). Non-responding bristles were re-tested with other agonists that activate the same neurons as indicated in the main text (Figure 1—figure supplement 2 and Figure 3—figure supplement 1).

A further test concerns the target T2, Drosophila TRPA1(B) (Drosophila melanogaster, UniProt Q7Z020).
T2 construct: expressed in transfected cells; host or cells: Xenopus laevis oocytes injected with TrpA1 cRNA
T2 sequence (Q7Z020 1-1197): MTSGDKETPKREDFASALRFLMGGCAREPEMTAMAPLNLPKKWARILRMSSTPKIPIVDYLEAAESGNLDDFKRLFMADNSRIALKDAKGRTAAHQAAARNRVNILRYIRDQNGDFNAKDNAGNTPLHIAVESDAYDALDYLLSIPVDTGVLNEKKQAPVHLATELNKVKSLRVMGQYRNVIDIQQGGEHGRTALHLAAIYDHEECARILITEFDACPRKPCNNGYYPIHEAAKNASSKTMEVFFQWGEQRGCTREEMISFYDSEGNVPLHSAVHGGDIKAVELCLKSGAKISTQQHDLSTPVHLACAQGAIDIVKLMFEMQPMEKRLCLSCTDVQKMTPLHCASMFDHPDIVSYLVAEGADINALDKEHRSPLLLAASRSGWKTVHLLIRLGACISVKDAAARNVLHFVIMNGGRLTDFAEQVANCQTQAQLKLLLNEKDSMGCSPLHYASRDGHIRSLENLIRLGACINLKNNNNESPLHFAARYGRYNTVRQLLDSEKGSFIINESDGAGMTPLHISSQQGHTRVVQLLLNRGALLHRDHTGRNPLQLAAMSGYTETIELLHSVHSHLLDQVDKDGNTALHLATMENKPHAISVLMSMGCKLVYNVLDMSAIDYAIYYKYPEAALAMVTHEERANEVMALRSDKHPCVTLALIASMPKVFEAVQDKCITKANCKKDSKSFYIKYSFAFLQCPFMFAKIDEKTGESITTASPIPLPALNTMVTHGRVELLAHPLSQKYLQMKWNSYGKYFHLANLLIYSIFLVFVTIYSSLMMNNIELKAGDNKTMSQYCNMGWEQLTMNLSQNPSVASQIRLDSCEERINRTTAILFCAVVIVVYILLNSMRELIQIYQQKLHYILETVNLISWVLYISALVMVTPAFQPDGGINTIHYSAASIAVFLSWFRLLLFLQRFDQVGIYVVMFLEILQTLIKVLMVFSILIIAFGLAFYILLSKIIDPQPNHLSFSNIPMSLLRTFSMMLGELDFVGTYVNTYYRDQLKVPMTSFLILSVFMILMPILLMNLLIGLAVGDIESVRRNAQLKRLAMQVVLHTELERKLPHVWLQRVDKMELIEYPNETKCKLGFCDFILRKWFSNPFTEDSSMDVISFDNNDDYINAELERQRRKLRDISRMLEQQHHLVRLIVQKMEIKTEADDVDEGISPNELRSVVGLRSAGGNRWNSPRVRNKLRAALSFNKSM
The experiment in a line: Two-electrode voltage clamp of Xenopus oocytes expressing Drosophila TRPA1(B). It is filed as cell-based. As for the experimental part: as §1

The target of a further test is agTRPA1(A) (Anopheles gambiae, UniProt B3G3I7). The experiment in a line: Two-electrode voltage clamp of Xenopus oocytes expressing agTRPA1(A). The class given is cell-based. To be noted: for isoform preference of activation: −60 mV, agTRPA1(A) versus agTRPA1(B). Here is the method:
as §1

In a further test the test system is agTRPA1(B). As to the kind of experiment: Two-electrode voltage clamp of Xenopus oocytes expressing agTRPA1(B). It is filed as cell-based, Anopheles gambiae. The conditions noted are these: 0.1 mM APS. Here is the method: as §1
Another test has as its system Drosophila (WT: wcs). The experiment in a line: Capillary feeder (Café) assay, feeding avoidance. The conditions noted are these: WT flies. On the set-up: dose or concentration left out as unconfirmed. It is filed as in vivo, Drosophila melanogaster. As for the experimental part: To quantitatively evaluate the impact of UV irradiation and chemicals on feeding deterrence, the capillary feeder (Café) assay ([Ja et al., 2007]) was used with minor modifications. In particular, feeding avoidance upon UV illumination was determined using two sibling populations of 16 hr starved flies. […] Irradiance was measured as ~1.8, 4, and 57.1 mW/cm^2for UVA, UVB, and white light, respectively, using an excised piece of a vial covering the photodiode probe (S120VC, Thorlabs, NJ, USA) to simulate internal irradiation. The vials were made of polypropylene, which has a low rate of UV transmission ([Kruenate et al., 2004]), resulting in increased internal temperature, as described in Figure 1—figure supplement 3. To minimize thermal accumulation, the UV-illuminated vial was actively cooled by fan-driven air flow while the internal temperature of a separately illuminated vial was concurrently monitored. After each feeding session, the change in the level of the menisci of 30 mM sucrose solutions in three calibrated glass capillary tubes (#2920107, Marienfeld, Lauda-Königshofen, Germany, 15 mm/μl) was measured. Following measurement of the evaporated volume obtained from vials without flies, the distance readings were converted to volume measurements. […]

A further test concerns mouse TRPA1. To be noted: extracellular Ca2+ required; ref Andersson et al., 2008; cited from earlier work.
The target in another test is T3, Drosophila TRPA1(A) (Drosophila melanogaster, UniProt Q7Z020).
T3 sequence (Q7Z020 1-1197): T2 sequence (Q7Z020 1-1197)
As to the kind of experiment: Two-electrode voltage clamp of Xenopus oocytes expressing Drosophila TRPA1(A). The class given is cell-based. Here is the method:
as §1

agTRPA1(A), sequence (B3G3I7 entry or part of it): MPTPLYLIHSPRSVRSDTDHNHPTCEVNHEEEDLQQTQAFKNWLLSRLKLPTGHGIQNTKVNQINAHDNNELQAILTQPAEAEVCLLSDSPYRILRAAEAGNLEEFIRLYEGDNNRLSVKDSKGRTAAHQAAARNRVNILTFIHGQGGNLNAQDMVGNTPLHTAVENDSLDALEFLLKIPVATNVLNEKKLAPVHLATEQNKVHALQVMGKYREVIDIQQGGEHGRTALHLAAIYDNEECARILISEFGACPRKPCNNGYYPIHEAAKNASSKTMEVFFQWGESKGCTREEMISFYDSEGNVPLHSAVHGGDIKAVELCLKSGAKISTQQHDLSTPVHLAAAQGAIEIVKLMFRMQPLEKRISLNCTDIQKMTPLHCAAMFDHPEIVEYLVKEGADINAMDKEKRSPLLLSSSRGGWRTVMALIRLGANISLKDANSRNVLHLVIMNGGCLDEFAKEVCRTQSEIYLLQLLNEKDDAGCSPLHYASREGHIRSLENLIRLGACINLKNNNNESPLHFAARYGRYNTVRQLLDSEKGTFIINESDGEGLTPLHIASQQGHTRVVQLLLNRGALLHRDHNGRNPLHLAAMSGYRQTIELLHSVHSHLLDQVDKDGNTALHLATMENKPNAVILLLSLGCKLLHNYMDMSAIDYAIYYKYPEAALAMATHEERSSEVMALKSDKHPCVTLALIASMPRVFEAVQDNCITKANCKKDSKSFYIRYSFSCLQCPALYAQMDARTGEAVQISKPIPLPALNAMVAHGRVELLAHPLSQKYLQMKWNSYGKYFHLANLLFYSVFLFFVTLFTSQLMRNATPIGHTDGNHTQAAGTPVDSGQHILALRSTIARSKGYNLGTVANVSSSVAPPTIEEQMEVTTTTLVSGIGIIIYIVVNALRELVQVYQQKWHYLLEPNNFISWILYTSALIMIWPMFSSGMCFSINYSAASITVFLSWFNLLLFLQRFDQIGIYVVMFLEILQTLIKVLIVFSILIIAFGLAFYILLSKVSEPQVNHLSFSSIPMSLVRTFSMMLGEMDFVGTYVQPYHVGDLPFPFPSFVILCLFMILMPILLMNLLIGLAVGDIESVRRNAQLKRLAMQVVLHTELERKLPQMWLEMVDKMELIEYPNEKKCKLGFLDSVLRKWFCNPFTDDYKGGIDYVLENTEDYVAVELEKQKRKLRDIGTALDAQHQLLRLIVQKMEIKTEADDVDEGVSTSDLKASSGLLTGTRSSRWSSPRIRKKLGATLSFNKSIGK
T1 sequence (O75762 whole entry): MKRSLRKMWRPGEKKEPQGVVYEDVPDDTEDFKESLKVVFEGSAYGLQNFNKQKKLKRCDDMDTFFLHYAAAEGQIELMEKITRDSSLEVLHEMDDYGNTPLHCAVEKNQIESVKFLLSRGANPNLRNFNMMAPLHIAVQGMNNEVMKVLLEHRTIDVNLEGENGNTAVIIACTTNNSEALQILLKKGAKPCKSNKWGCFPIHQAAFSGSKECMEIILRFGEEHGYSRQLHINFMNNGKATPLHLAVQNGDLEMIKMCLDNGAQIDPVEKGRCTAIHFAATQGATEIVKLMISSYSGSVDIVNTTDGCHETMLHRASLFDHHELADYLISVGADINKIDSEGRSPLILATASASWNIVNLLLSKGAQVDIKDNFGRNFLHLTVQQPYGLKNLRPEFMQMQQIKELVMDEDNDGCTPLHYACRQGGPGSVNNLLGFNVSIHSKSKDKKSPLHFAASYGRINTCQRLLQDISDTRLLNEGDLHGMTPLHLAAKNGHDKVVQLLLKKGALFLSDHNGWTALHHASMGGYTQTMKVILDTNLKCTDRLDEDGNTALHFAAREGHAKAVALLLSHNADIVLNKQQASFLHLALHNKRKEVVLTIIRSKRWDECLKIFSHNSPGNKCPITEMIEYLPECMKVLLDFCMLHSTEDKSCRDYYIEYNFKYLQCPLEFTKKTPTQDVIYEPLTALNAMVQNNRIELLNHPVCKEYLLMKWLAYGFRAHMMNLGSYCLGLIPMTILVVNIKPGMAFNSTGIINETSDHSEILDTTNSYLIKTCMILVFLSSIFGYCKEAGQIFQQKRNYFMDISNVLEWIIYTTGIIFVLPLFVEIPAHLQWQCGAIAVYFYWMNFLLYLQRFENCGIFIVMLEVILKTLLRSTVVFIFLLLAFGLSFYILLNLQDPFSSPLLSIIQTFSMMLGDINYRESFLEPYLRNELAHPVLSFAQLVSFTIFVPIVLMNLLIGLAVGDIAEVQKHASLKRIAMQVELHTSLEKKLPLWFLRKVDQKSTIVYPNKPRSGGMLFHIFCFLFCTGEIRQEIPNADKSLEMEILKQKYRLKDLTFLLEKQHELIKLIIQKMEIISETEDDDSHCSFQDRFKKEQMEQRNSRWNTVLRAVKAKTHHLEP

In the case of `O[C@@H](CS)[C@@H](O)CS` (racemic) [DTT, dithiothreitol], the “DTT responsiveness” value in the test with TRPA1(A)C105A and with TRPA1(A)R113A/R116A was “indistinguishable from that of TRPA1(B)” throughout. For the same compound, the “DTT current response” value on human TRPA1 (humTRPA1) is given as “seldom showed electrophysiological responses to DTT”; on Drosophila TRPA1(B) (Xenopus oocytes), “little compared to that of TRPA1(A)”. In addition, the “effect of pre-application on UV-evoked action potentials” value (“effect of pre-application” for short) in test [1] is “lowered the frequencies of UV-evoked action potentials”. On agTRPA1(A), the EC50 is about 3.8 µM.
For `N.N.O=S(=O)(O)OOS(=O)(=O)O` [APS, ammonium persulfate], the “channel activation” value in the test on agTRPA1(B) is given as “not agTRPA1(B)”; at agTRPA1(A) (0.1 mM APS, mixture 0.01 mM TEMED and 0.1 mM APS, from 30 min after mixing), “activated agTPRA1(A)”.
For the compound `S=C=NCc1ccccc1` [BITC, benzyl isothiocyanate], in [1], the “effect of pre-application” value is “lowered the frequencies of UV-evoked action potentials”.
Take `N#CSCc1ccccc1` [BTC, benzyl thiocyanate]: in test [1], the “effect of pre-application” value is recorded as “lowered the frequencies of UV-evoked action potentials”. Besides, at agTRPA1(A) (Xenopus oocytes), the “isoform preference of activation” value is “preferentially activated agTRPA1(A) over agTRPA1(B)”.
As to `OO` [H2O2, hydrogen peroxide], the “feeding avoidance” value in the test on Drosophila (WT: wcs) is recorded as “increasingly avoided ingestion of H2O2-containing food”. Besides, the “H2O2 current response” value in the test on TRPA1(A)C105A, in the test on TRPA1(A)R113A/R116A and at human TRPA1 (humTRPA1) was “remarkably reduced responses to H2O2” throughout. The EC50 is about 230 µM in the test with mouse TRPA1, 900 ± 200 µM on Drosophila TRPA1(B), 5 ± 0.8 µM at Drosophila TRPA1(A) and 1.7 ± 0.3 µM on agTRPA1(A). Besides, the “spiking response of bitter-sensing neurons” value in test [1] (100 mM H2O2, required the TrpA1 gene) is “robust spiking response”. Further, the “lowest concentration that readily activates the channel” value on Drosophila TRPA1(A) (Xenopus oocytes, 'as low as') stood at 100 nM. Besides, the Emax at Drosophila TRPA1(A) (read-out: average maximal current amplitude relative to NMM responses) is about 30%. The “NMM-normalized peak current amplitude relative to Drosophila TRPA1(A)” value on agTRPA1(A) (Xenopus oocytes) is given as ~ 5 times.
Regarding `CN1C(=O)C=CC1=O` [NMM, N-methyl maleimide], in the test with Drosophila (WT: wcs), the “feeding avoidance” value was “showed NMM-dependent feeding avoidance”. The “effect of pre-application” value in test [1] is on record as “lowered the frequencies of UV-evoked action potentials”. Also, the “reversal potential of evoked current” value on Drosophila TRPA1(A) (Xenopus oocytes, n = 7) was −5.4 ± 1.0 mV. In addition, the “rectification: ratio of conductance at +60 mV to that at −60 mV” value at Drosophila TRPA1(A) (net response, Xenopus oocytes, n = 4) is 1.7 ± 0.3. In addition, the “effect on the stimulatory effect of APS/TEMED co-incubation” value on agTRPA1(A) (NMM at 0.01 mM) was “abolished”.
In the case of `c1c[nH]cn1` [imidazole], the “isoform preference of activation” value on agTRPA1(A) (Xenopus oocytes) is reported as “preferentially activated agTRPA1(A) over agTRPA1(B)”.
